Results on 19 molecules are retold here after paper PMC3139667, “A Screen against Leishmania Intracellular Amastigotes: Comparison to a Promastigote Screen and Identification of a Host Cell-Specific Hit” (PLoS Neglected Tropical Diseases, 2011).

“Also recorded” adds a separate entry of the source. Where a name gives a salt, the structure may show the parent alone. Read-outs that look alike come from different tables or passages of the source.

Experiment [1] has as its system L. donovani axenic amastigotes. Kind of experiment: Dose response study against axenic amastigotes (CellTiter-Glo). Format: cell-based, Leishmania donovani. The following applies: for GI50: 72 h at 37°C, CellTiter-Glo, read-out: GI50 Axenic amastigote. The protocol:
L. donovani axenic amastigotes (5×10^5 cells/ml in axenic amastigote media) were dispensed in sterile 96-well flat white opaque assay plates (Greiner Bio-One) using a WellMate multichannel dispenser (Matrix). […] 1% DMSO and amphotericin B (2 µM, 1% DMSO final concentration) were added as negative and positive controls respectively. Axenic amastigotes were incubated with the compounds for 72 h at 37°C with 5% CO2. Parasite viability was then measured using CellTiter-Glo as described above.

Experiment [2] has as its system THP-1. Description: Host cell toxicity: THP-1 host nuclei counts in the image-based assay. The following applies: for GI50: read-out: GI50 THP-1; for Selectivity: ratio between parasite GI50 and THP-1 GI50. Here is the method: (§1) Sterile, black, 96-well, clear bottom plates (Greiner Bio-One) were seeded with exponentially growing THP-1 (5×10^5cells/ml). THP-1 were treated with 0.1 µM phorbol myristate acetate (PMA, Sigma) at 37°C for 48 h to achieve differentiation into adherent, non-dividing macrophages. Maturation of THP-1 cells towards monocyte-macrophage like cells is essential to avoid parasitized cells being overgrown by replicating cells. After activation by PMA, cells were washed and incubated with complete RPMI medium containing stationary phase L. donovani promastigotes at a macrophage/promastigote ratio of 1/15. After 4 h incubation at 37°C, non-internalized promastigotes were removed by 2–3 successive washes with RPMI containing 5% FBS and 5% horse serum. Test compounds (10 µM), positive control (2 µM amphotericin B) or negative control (1% DMSO) were then added to the cultures using a Biomek FXp liquid handler (Beckman Coulter). Cultures were incubated at 37°C for 72 h. Cells were then washed with phosphate-buffered saline (PBS), fixed for 30 minutes with 4% formaldehyde, rinsed again with PBS, stained for 2 h with 4′,6′-diamidino-2-phenylindole (DAPI 300 nM) and finally washed with PBS. […] Images were acquired with an INCell Analyzer 1000 automated epi-fluorescent microscope (G.E. Healthcare). The excitation and emission filters used to detect DAPI were 350/50 nm and 460/40 nm respectively. Eight image fields were acquired per well with a 20X objective. The proprietary INCell Developer Toolbox 1.7 software was used for image analysis. Segmentation parameters were set to identify host nuclei with a minimum area of 250 µm^2 and parasite kinetoplast with an average area of 1 µm^2. The intensity of parasite nucleus was too low to be detected with a 20X objective. A border, representing the boundary of the cell, was drawn around the nucleus (total area between 700 and 2000 µm^2). Only parasites found within this area were included in the calculation to eliminate extracellular parasites. False positive parasite detection in the nucleus was also excluded from the calculation. Host cell nuclei and parasite kinetoplasts were counted and the ratio of parasites DNA to host nuclei was selected as the measurement output. Percentage inhibition of parasite growth was calculated as [1-(P/hcx-P/hc^+)/(P/hc^−-P/hc^+)]*100 where P/hcx, P/hc^+ and P/hc^− are parasite per host cell ratio for every well, positive control (amphotericin B) and negative control (DMSO) respectively. Calculation of Z' factor and GI50 curve fitting were carried out as described above.

The subject of experiment [3] is L. donovani intracellular amastigotes. Description: Intracellular amastigote high-throughput image-based assay in infected THP-1 macrophages. It counts as cell-based, Leishmania donovani. The conditions noted are these: for GI50: L. donovani in THP-1, 72 h, parasites per host cell, read-out: GI50 Intracellular amastigote. Here is the method: as §1
Experiment [4] deals with L. donovani promastigotes. Description: Promastigote high-throughput ATP-bioluminescence assay. Format: cell-based, Leishmania donovani. The following applies: for GI50: 72 h at 27°C, CellTiter-Glo, read-out: GI50 Promastigote. The protocol:
L. donovani promastigotes from an exponentially growing culture were diluted to 10^6/ml in RPMI containing 10% FBS and 10% BHT. The diluted culture (99 µl/well) was dispensed in sterile 96-well flat white opaque assay plates (Greiner Bio-One) using a WellMate multichannel dispenser (Matrix). 1 µl of 1 mM test compound dissolved in DMSO was added to the plates for a final concentration of 10 µM compound and 1% DMSO. Amphotericin B was added as a positive control (final concentration 2 µM, 1% DMSO) and as a negative control, 1 µl DMSO was added (1% final concentration). Compounds and controls were added to the assay plate with the robotic dispenser Biomek FXp liquid handler (Beckman Coulter). Promastigotes were incubated with the compounds for 72 h at 27°C. The parasites were then lysed by adding 50 µl of CellTiter-Glo (Promega) and placed on an orbital shaker for 5 min at room temperature. After lysis, the resulting ATP-bioluminescence was measured using the Analyst HT plate reader (Molecular Devices). Percentage inhibition of parasite growth was calculated for each well as [1-(RLUx-RLU^+)/(RLU^--RLU^+)]*100 where RLUx, RLU^+ and RLU^- are respectively the Relative Light Units for each well, positive (amphotericin B) and negative (DMSO) controls. A screening window coefficient, denoted Z' factor, was used to evaluate the performance of the assay. The Z' factor, calculated as 1-(3σc++3σc−)/(µc+−µc−) where σc+, σc−, µc+ and µc− are respectively the standard deviation and mean values of positive and negative controls, is reflective of the assay signal dynamic range and the data variation associated with signal measurement. […] GI50 curve fitting was carried out using GraphPad Prism 4 Software (GraphPad Software Inc., San Diego, CA).

[5] abbreviates: Leishmania donovani, THP-1, 72 h.
The mark [6] stands for this setting: PMA-differentiated infected THP-1, 72 h, host nuclei count.
Setting [7] is: ratio between promastigote GI50 and intracellular amastigote GI50, >2 more active against intracellular amastigote, <0.4 more active against promastigotes.

In the case of `C=CCN1CC[C@]23c4c5ccc(O)c4O[C@H]2/C(=N/N=C2\CC[C@@]4(O)[C@H]6Cc7ccc(O)c8c7[C@@]4(CCN6CC=C)[C@H]2O8)CC[C@@]3(O)[C@H]1C5` [Naloxonazine], the GI50 in experiment [1] (Leishmania donovani) is over 50 µM; in experiment [2] (Homo sapiens, THP-1, 72 h), 33.8 µM; in experiment [3], 3.49 µM; in experiment [3] (setting [5]), 3.45 µM; in experiment [4] (Leishmania donovani) it was over 50 µM. The “Activity against axenic amastigotes (in words)” value in experiment [1] (dose response, up to 50 µM) is listed as “no activity”. Moreover, the “GI90 THP-1” value in experiment [2] is listed as 50 µM. Besides, the Selectivity in experiment [2] is 9.68. The “Primary screen against intracellular amastigotes, hit selection” value in experiment [3] is reported as “complete specificity for the intracellular amastigote stage”. The molecule also had a Specificity in experiment [3] of 14.32. The same molecule had a GI90 intracellular amastigote in experiment [3] (curative concentration) of 12.5 µM. Besides, the “Activity against promastigotes (in words)” value in experiment [4] (dose response, up to 50 µM) was “no activity; also recorded: completely inactive”.
Regarding `CC(C)(C)c1ccc(S(=O)(=O)/C=C/C#N)cc1` [BAY 11–7085], the GI50 in experiment [1] was 0.42 µM; in experiment [2] (setting [6]), over 50 µM; in experiment [4], 1.54 µM. Further, in experiment [2], the Selectivity came out at 32.46. This molecule showed a Specificity in experiment [3] of 0.06.
Turning to `Clc1cc(Cl)c(OCC#CI)cc1Cl` [Haloprogin], the GI50 was found to be 0.56 µM in experiment [1] (Leishmania donovani); 20 µM in experiment [2] (Homo sapiens, THP-1, 72 h); 6 µM in experiment [3] (setting [5]); 1.05 µM in experiment [4] (Leishmania donovani). Besides, in experiment [2], the Selectivity came out at 19.04. For the same molecule, the Specificity in experiment [3] (setting [7]) was 0.17.
Consider `CN(C)C(=S)SSC(=S)N(C)C` [Thiram], for which the GI50 in experiment [1] (Leishmania donovani) stood at 5.42 µM; in experiment [2] (Homo sapiens, THP-1, 72 h), 1.58 µM; in experiment [3] (setting [5]) it was 10.4 µM; in experiment [4] (Leishmania donovani) it was 4.62 µM. Also, in experiment [2], the Selectivity was 0.34. For the same molecule, the Specificity in experiment [3] (setting [7]) is 0.44.
For the molecule `CC(C)(C)c1ccc(C(O)CCCN2CCC(C(O)(c3ccccc3)c3ccccc3)CC2)cc1` (centres unmarked) [Terfenadine], the results for the GI50 in experiment [1] (Leishmania donovani) and in experiment [4] (Leishmania donovani) were 0.61 µM and 11.9 µM, respectively.
With `O=C(Nc1ccc(Cl)c(Cl)c1)c1cc(Cl)cc(Cl)c1O` [3,3′,4′,5-tetrachlorosalicylanilide], the GI50 in experiment [1] (Leishmania donovani) was 1.38 µM; in experiment [2] (Homo sapiens, THP-1, 72 h), 0.32 µM; in experiment [4] (Leishmania donovani) it was 1.45 µM. For the same molecule, the Selectivity in experiment [2] is recorded as 0.22.
As for `CC/C(=C(\c1ccccc1)c1ccc(OCCN(C)C)cc1)c1ccccc1` [Tamoxifen Citrate], the GI50 in experiment [1] (Leishmania donovani) is over 50 µM; in experiment [2] (Homo sapiens, THP-1, 72 h) it was over 16.5 µM; in experiment [3] (setting [5]), 20.8 µM; in experiment [4] (Leishmania donovani) it was 10.2 µM. Further, the Selectivity in experiment [2] turned out to be 1.61. In experiment [3] (10 µM, duplicates, hit = 60% parasite growth inhibition and not more than 20% reduction in THP-1 numbers), the “Primary screen against intracellular amastigotes, hit selection” value is “active”. In addition, the Specificity in experiment [3] (setting [7]) was found to be 0.49.
With `Cc1c(-c2ccc(O)cc2)n(Cc2ccc(OCCN3CCCCCC3)cc2)c2ccc(O)cc12` [Bazedoxifene], the GI50 in experiment [1] (Leishmania donovani) is over 16.5 µM; in experiment [4] (Leishmania donovani), 6.52 µM.
Turning to `CN(C)C(=O)C(CCN1CCC(O)(c2ccc(Cl)cc2)CC1)(c1ccccc1)c1ccccc1` [Loperamide Hydrochloride], the GI50 in experiment [1] (Leishmania donovani) is over 50 µM; in experiment [4] (Leishmania donovani) it was 17.3 µM.
Turning to `CC[C@@]1(O)C[C@H](O[C@H]2C[C@H](N(C)C)[C@H](O[C@H]3C[C@H](O)[C@H](O[C@H]4CCC(=O)[C@H](C)O4)[C@H](C)O3)[C@H](C)O2)c2c(cc3c(c2O)C(=O)c2c(O)cccc2C3=O)[C@H]1C(=O)OC` [Aclacynomycine a1], the concentration for 50% growth inhibition (GI50) in experiment [1] is over 16.5 µM; in experiment [2] (setting [6]) it was 29.1 µM; in experiment [3], 5.81 µM; in experiment [4] it was 9.15 µM. Moreover, the Selectivity in experiment [2] is given as 5. For the same molecule, the Specificity in experiment [3] (setting [7]) was found to be 1.57.
Consider `CC(=O)[C@]1(O)Cc2c(O)c3c(c(O)c2[C@@H](O[C@H]2C[C@H](N)[C@H](O)[C@H](C)O2)C1)C(=O)c1ccccc1C3=O` [Idarubicin], for which the GI50 in experiment [1] (Leishmania donovani) turned out to be 1.78 µM; in experiment [2] (Homo sapiens, THP-1, 72 h), 1.89 µM; in experiment [4] (Leishmania donovani), 4.65 µM. Further, the Selectivity in experiment [2] is listed as 0.40.
For `COc1c(Cl)cc2c(c1OC)N(C)[C@@H]1N3C(=O)[C@@]4(C)SS[C@@]3(C(=O)N4C)[C@H](O)[C@]21O` [Sporidesmin A], the GI50 in experiment [1] turned out to be 1.66 µM; in experiment [2] (setting [6]), 0.02 µM; in experiment [4], 1.18 µM. The Selectivity in experiment [2] is 0.02.
Take `CCCCCCCCCCCCCCCC[n+]1ccccc1` [Cetylpyridinium chloride]: in experiment [3], the Specificity was 8.05.
Turning to `Clc1ccc(CO/N=C(\Cn2ccnc2)c2ccc(Cl)cc2Cl)c(Cl)c1` [Oxiconazole], in experiment [3] (setting [7]), the Specificity is on record as 0.40.
For the molecule `CC(C)(C)CC(C)(C)c1ccc(OCCOCC[N+](C)(C)Cc2ccccc2)cc1.[Cl-]` [Benzetonium chloride], the GI50 in experiment [1] is 10.7 µM; in experiment [3], 10 µM; in experiment [4], 11.3 µM. For the same molecule, the Specificity in experiment [3] (setting [7]) is reported as 1.13.
With Gramicidin, the GI50 in experiment [1] was 5.76 µM; in experiment [2] (setting [6]), 8.38 µM; in experiment [4], 0.68 µM. In addition, the Selectivity in experiment [2] was found to be 12.19.
Consider `C[C@@H]1CC[C@@]2(OC1)O[C@H]1[C@@H](O)[C@H]3[C@@H]4CC[C@H]5C[C@@H](O[C@@H]6O[C@H](CO)[C@H](O[C@@H]7O[C@H](CO)[C@@H](O)[C@H](O[C@@H]8OC[C@@H](O)[C@H](O)[C@H]8O)[C@H]7O[C@@H]7O[C@H](CO)[C@H](O)[C@H](O[C@@H]8O[C@H](CO)[C@@H](O)[C@H](O)[C@H]8O)[C@H]7O)[C@H](O)[C@H]6O)[C@H](O)C[C@]5(C)[C@H]4CC[C@]3(C)[C@H]1[C@@H]2C` [Digitonin], for which the GI50 in experiment [1] (Leishmania donovani) was 13.8 µM; in experiment [2] (Homo sapiens, THP-1, 72 h), 13.5 µM; in experiment [4] (Leishmania donovani), 4.38 µM. The Selectivity in experiment [2] is given as 3.075.
For `C[CH2][Hg][S]c1ccccc1C(=O)[O-].[Na+]` [Thimerosal], the GI50 in experiment [1] stood at 1.5 µM; in experiment [2] (setting [6]), 12.8 µM; in experiment [4], 0.49 µM. Further, the Selectivity in experiment [2] is on record as 26.18.
In the case of `CCCCN(CCCC)C(=S)[S-].CCCCN(CCCC)C(=S)[S-].[Zn+2]` [Zinc Dibutyldithiocarbamate], the Selectivity in experiment [2] is 5.89. In experiment [3], this molecule came in with a Specificity of 0.17.
